Assay results taken from US8153795B2, “Substituted 1-oxa-3,8-diazaspiro[4.5]-decan-2-one-compounds and the use thereof for producing drugs” (Gruenenthal GmbH, priority 2005, dated 2012).

Experiments:
5-HT transporter = biological target: T1, 5-HT transporter (Rattus norvegicus, UniProt P31652); assay: 5-HT uptake inhibition in rat brain synaptosomes (medulla and pons), [3H]-5-HT; format: biochemical
T1 construct: from tissue; host or cells: rat brain synaptosomes (P2 fraction) from medulla and pons
Method in brief: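 Freshly isolated P2 synaptosomes taken from rat hypothalamus (NA) or medulla/pons (5-HT) were incubated at room temperature under O2 with [3H]-NA for 7.5 min or [3H]-5-HT for 5 min. Uptake was measured as filter-retained radioactivity by scintillation counting.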

NA transporter = biological target: T2, NA transporter (Rattus norvegicus, UniProt Q63380); assay: noradrenalin uptake inhibition in rat brain synaptosomes (hypothalamus), [3H]-NA; format: biochemical
T2 construct: from tissue; host or cells: rat brain synaptosomes (P2 fraction) from hypothalamus
Description: a) Method for Determining Noradrenalin and 5-HT Uptake Inhibition:
Synaptosomes from rat brain regions are freshly isolated for in vitro studies, as described in the publication “The isolation of nerve endings from brain” by E. G. Gray and V. P. Whittaker, J. Anatomy 96, pages 79-88, 1962. The corresponding literature description is hereby introduced as a reference and is deemed to be part of the disclosure.
The tissue (hypothalamus for the determination of noradrenalin uptake inhibition and medulla and pons for the determination of 5-HT uptake inhibition) is homogenised in ice-cooled 0.32 M sucrose (100 mg of tissue/1 mL) in a glass homogeniser with Teflon pestle using five complete up and down strokes at 840 revolutions/minute.
The homogenate is centrifuged at 4° C. for 10 minutes at 1000 g. After subsequent centrifugation at 17000 g for 55 minutes, the synaptosomes (P2 fraction) are obtained, which are resuspended in 0.32 M […] (0.5 mL/100 mg of original weight).
The particular uptake is measured in a 96-well microtitre plate. The volume is 250 μl and the incubation proceeds at room temperature (approx. 20-25° C.) under an O2 atmosphere.
The incubation time is 7.5 minutes for [^3H]-NA and 5 minutes for [^3H]-5-HT. The 96 samples are then filtered through a Unifilter GF/B® microtitre plate (Packard) and washed with 200 mL of incubated buffer using a “Brabdel MPXRI-96T Cell-Harvester”. The Unifilter GF/B plate is dried for 1 hour at 55° C. The plate is then sealed with a Back Seal® (Packard) and 35 μl of scintillation fluid are added per well (Ultima Gold®, Packard). After sealing with a top Seal® (Packard) and establishing an equilibrium (around 5 hours), radioactivity is determined in a “Trilux 1450 Microbeta” (Wallac).
The quantity of protein used in the above determination corresponds to the values known from the literature, as for example described in “Protein measurement with the folin phenol reagent”, Lowry et al., J. Biol. Chem., 193, 265-275, 1951.
A detailed description of the method may additionally be found in the literature, for example in M. Ch. Frink, H.-H. Hennies, W. Engelberger, M. Haurand and B. Wilffert (1996) Arzneim.-Forsch./Drug Res. 46 (III), 11, 1029-1036.

T1 sequence (P31652 whole entry): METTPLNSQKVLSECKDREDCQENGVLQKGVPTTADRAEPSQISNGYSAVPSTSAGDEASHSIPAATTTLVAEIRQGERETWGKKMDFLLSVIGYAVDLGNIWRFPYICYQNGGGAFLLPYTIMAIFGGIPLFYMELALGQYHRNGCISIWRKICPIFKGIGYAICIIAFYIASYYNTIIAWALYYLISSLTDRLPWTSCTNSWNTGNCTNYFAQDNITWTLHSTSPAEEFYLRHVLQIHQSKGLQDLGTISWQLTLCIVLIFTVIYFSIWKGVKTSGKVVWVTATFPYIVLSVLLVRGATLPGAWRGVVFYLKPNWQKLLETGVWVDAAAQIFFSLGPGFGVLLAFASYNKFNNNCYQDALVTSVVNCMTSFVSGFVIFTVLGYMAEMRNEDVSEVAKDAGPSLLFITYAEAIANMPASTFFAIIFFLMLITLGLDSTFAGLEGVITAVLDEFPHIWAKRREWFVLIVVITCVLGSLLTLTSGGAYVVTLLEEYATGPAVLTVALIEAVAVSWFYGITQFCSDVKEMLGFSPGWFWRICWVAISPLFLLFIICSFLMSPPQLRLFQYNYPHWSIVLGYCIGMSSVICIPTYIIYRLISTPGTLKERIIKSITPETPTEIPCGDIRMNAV
T2 sequence (Q63380 1-617): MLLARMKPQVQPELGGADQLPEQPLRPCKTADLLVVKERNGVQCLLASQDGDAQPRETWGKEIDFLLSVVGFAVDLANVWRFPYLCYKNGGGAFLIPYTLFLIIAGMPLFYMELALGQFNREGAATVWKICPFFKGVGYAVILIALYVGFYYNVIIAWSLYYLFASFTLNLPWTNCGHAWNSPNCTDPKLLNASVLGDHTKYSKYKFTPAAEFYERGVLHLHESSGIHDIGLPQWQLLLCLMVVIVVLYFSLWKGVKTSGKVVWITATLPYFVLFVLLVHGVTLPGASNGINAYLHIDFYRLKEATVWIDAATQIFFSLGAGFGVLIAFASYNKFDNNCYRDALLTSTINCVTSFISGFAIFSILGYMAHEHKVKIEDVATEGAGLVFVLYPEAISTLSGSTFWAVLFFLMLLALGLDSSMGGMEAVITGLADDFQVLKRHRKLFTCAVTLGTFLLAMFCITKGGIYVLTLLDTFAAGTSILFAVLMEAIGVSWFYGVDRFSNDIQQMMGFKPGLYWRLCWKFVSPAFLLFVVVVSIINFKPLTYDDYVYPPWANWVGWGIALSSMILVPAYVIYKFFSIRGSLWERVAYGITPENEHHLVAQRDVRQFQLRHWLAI

Structure (SMILES): O=C1OC2(CCN(C(=S)Nc3cc(Cl)ccc3Cl)CC2)CN1Cc1cccc(Br)c1 [Example 2, 3-(3-bromobenzyl)-2-oxo-1-oxa-3,8-diazaspiro[4.5]decane-8-carbothioic acid (2,5-dichlorophenyl)amide]
- inhibition at 10 µM (5-HT transporter): 60%
- inhibition at 10 µM (NA transporter): 64%

Structure (SMILES): COCCNC(=S)N1CCC2(CC1)CN(Cc1cccc(Br)c1)C(=O)O2 [Example 5, 3-(3-bromobenzyl)-2-oxo-1-oxa-3,8-diazaspiro[4.5]decane-8-carbothioic acid (2-methoxyethyl)amide]
- inhibition at 10 µM (NA transporter): 70%

Structure (SMILES): COc1ccccc1NC(=S)N1CCC2(CC1)CN(Cc1cccc(Br)c1)C(=O)O2 [Example 6, 3-(3-bromobenzyl)-2-oxo-1-oxa-3,8-diazaspiro[4.5]decane-8-carbothioic acid (2-methoxyphenyl)amide]
- inhibition at 10 µM (5-HT transporter): 63%
- inhibition at 10 µM (NA transporter): 56%

Structure (SMILES): CC(=O)c1cccc(NC(=S)N2CCC3(CC2)CN(Cc2cc(C)cc(C)c2)C(=O)O3)c1 [Example 7, 3-(3,5-dimethylbenzyl)-2-oxo-1-oxa-3,8-diazaspiro[4.5]decane-8-carbothioic acid (3-acetylphenyl)amide]
- inhibition at 10 µM (5-HT transporter): 55%
- inhibition at 10 µM (NA transporter): 50%

Structure (SMILES): Cc1ccccc1NC(=S)N1CCC2(CC1)CN(Cc1ccccc1)C(=O)O2 [Example 8, 3-benzyl-2-oxo-1-oxa-3,8-diazaspiro[4.5]decane-8-carbothioic acid o-tolylamide]
- inhibition at 10 µM (5-HT transporter): 62%
- inhibition at 10 µM (NA transporter): 50%

Structure (SMILES): CCOC(=O)CC(C)NC(=S)N1CCC2(CC1)CN(Cc1cccc(Br)c1)C(=O)O2 (stereo not drawn) [Example 9, 3-{[3-(3-bromobenzyl)-2-oxo-1-oxa-3,8-diazaspiro[4.5]decane-8-carbothioyl]amino}butanoic acid ethyl ester]
- inhibition at 10 µM (NA transporter): 81%

Structure (SMILES): C=CCNC(=S)N1CCC2(CC1)CN(Cc1ccc3ccccc3c1)C(=O)O2 [Example 10, 3-naphthalen-2-ylmethyl-2-oxo-1-oxa-3,8-diazaspiro[4.5]decane-8-carbothioic acid allylamide]
- inhibition at 10 µM (5-HT transporter): 50%
- inhibition at 10 µM (NA transporter): 78%

Structure (SMILES): CCOc1ccc(NC(=S)N2CCC3(CC2)CN(Cc2ccc(F)c(F)c2)C(=O)O3)cc1 [Example 13, 3-(3,4-difluorobenzyl)-2-oxo-1-oxa-3,8-diazaspiro[4.5]decane-8-carbothioic acid (4-ethoxyphenyl)amide]
- inhibition at 10 µM (5-HT transporter): 44%
- inhibition at 10 µM (NA transporter): 53%

Structure (SMILES): N#Cc1cccc(CN2CC3(CCN(C(=S)Nc4cc(Cl)cc(Cl)c4)CC3)OC2=O)c1 [Example 14, 3-(3-cyanobenzyl)-2-oxo-1-oxa-3,8-diazaspiro[4.5]decane-8-carbothioic acid (3,5-dichlorophenyl)amide]
- inhibition at 10 µM (5-HT transporter): 57%
- inhibition at 10 µM (NA transporter): 49%

Structure (SMILES): N#Cc1cccc(CN2CC3(CCN(C(=S)Nc4cccc(C(F)(F)F)c4)CC3)OC2=O)c1 [Example 15, 3-(3-cyanobenzyl)-2-oxo-1-oxa-3,8-diazaspiro[4.5]decane-8-carbothioic acid (3-trifluoromethylphenyl)amide]
- inhibition at 10 µM (5-HT transporter): 57%
- inhibition at 10 µM (NA transporter): 55%

Structure (SMILES): COc1ccc([N+](=O)[O-])cc1CN1CC2(CCN(C(=S)NCC3CCCO3)CC2)OC1=O (stereo not drawn) [Example 17, 3-(2-methoxy-5-nitrobenzyl)-2-oxo-1-oxa-3,8-diazaspiro[4.5]decane-8-carbothioic acid (tetrahydrofuran-2-ylmethyl)amide]
- inhibition at 10 µM (5-HT transporter): 50%
- inhibition at 10 µM (NA transporter): 45%

Structure (SMILES): O=C1OC2(CCN(C(=S)Nc3ccccc3)CC2)CN1Cc1ccccc1-c1ccccc1 [Example 18, 3-biphenyl-2-ylmethyl-2-oxo-1-oxa-3,8-diazaspiro[4.5]decan-8-carbothioic acid phenylamide]
- inhibition at 10 µM (NA transporter): 55%

Structure (SMILES): N#Cc1cccc(CN2CC3(CCN(C(=S)NCC4CCCCC4)CC3)OC2=O)c1 [Example 19, 3-(3-cyanobenzyl)-2-oxo-1-oxa-3,8-diazaspiro[4.5]decane-8-carbothioic acid cyclohexylmethylamide]
- inhibition at 10 µM (5-HT transporter): 69%
- inhibition at 10 µM (NA transporter): 48%

Structure (SMILES): CC(=O)c1cccc(NC(=S)N2CCC3(CC2)CN(Cc2ccccc2F)C(=O)O3)c1 [Example 20, 3-(2-fluorobenzyl)-2-oxo-1-oxa-3,8-diazaspiro[4.5]decane-8-carbothioic acid (3-acetylphenyl)amide]
- inhibition at 10 µM (NA transporter): 48%

Structure (SMILES): CCOc1ccc(NC(=O)N2CCC3(CC2)CN(Cc2ccccc2F)C(=O)O3)cc1 [Example 24, 3-(2-fluorobenzyl)-2-oxo-1-oxa-3,8-diazaspiro[4.5]decane-8-carboxylic acid (4-ethoxyphenyl)amide]
- inhibition at 10 µM (NA transporter): 58%

Structure (SMILES): Cc1ccc(CN2CC3(CCN(C(=O)Nc4ccc(C)c([N+](=O)[O-])c4)CC3)OC2=O)cc1 [Example 27, 3-(4-methylbenzyl)-2-oxo-1-oxa-3,8-diazaspiro[4.5]decane-8-carboxylic acid (4-methyl-3-nitrophenyl)amide]
- inhibition at 10 µM (5-HT transporter): 62%
- inhibition at 10 µM (NA transporter): 68%

Structure (SMILES): O=C(NCc1ccc(F)cc1)N1CCC2(CC1)CN(Cc1ccc(F)c(F)c1)C(=O)O2 [Example 28, 3-(3,4-difluorobenzyl)-2-oxo-1-oxa-3,8-diazaspiro[4.5]decane-8-carboxylic acid 4-fluorobenzylamide]
- inhibition at 10 µM (5-HT transporter): 45%
- inhibition at 10 µM (NA transporter): 53%

Structure (SMILES): O=C(Nc1cc(F)ccc1F)N1CCC2(CC1)CN(Cc1cccc(Br)c1)C(=O)O2 [Example 29, 3-(3-bromobenzyl)-2-oxo-1-oxa-3,8-diazaspiro[4.5]decane-8-carboxylic acid (2,5-difluorophenyl)amide]
- inhibition at 10 µM (5-HT transporter): 84%
- inhibition at 10 µM (NA transporter): 82%

Structure (SMILES): N#Cc1cccc(NC(=O)N2CCC3(CC2)CN(Cc2ccccc2)C(=O)O3)c1 [Example 33, 3-benzyl-2-oxo-1-oxa-3,8-diazaspiro[4.5]decane-8-carboxylic acid (3-cyanophenyl)amide]
- inhibition at 10 µM (5-HT transporter): 59%
- inhibition at 10 µM (NA transporter): 93%

Structure (SMILES): Cc1ccc(NC(=O)N2CCC3(CC2)CN(Cc2ccc(F)c(F)c2)C(=O)O3)cc1[N+](=O)[O-] [Example 34, 3-(3,4-difluorobenzyl)-2-oxo-1-oxa-3,8-diazaspiro[4.5]decane-8-carboxylic acid (4-methyl-3-nitrophenyl)amide]
- inhibition at 10 µM (NA transporter): 41%

Structure (SMILES): COc1cccc(NC(=O)N2CCC3(CC2)CN(Cc2ccc(F)c(F)c2)C(=O)O3)c1 [Example 35, 3-(3,4-difluorobenzyl)-2-oxo-1-oxa-3,8-diazaspiro[4.5]decane-8-carboxylic acid (3-methoxyphenyl)amide]
- inhibition at 10 µM (5-HT transporter): 56%
- inhibition at 10 µM (NA transporter): 63%

Structure (SMILES): O=C(Nc1ccc(Cl)c(C(F)(F)F)c1)N1CCC2(CC1)CN(Cc1ccccc1)C(=O)O2 [Example 37, 3-benzyl-2-oxo-1-oxa-3,8-diazaspiro[4.5]decane-8-carboxylic acid (4-chloro-3-trifluoromethylphenyl)amide]
- inhibition at 10 µM (NA transporter): 47%

Structure (SMILES): O=C(NCCc1ccccc1)N1CCC2(CC1)CN(Cc1ccccc1C(F)(F)F)C(=O)O2 [Example 49, 2-oxo-3-(2-trifluoromethylbenzyl)-1-oxa-3,8-diazaspiro[4.5]decane-8-carboxylic acid phenethylamide]
- inhibition at 10 µM (NA transporter): 48%

Structure (SMILES): O=C(Nc1cccc(F)c1)N1CCC2(CC1)CN(Cc1ccccc1)C(=O)O2 [Example 60, 3-benzyl-2-oxo-1-oxa-3,8-diazaspiro[4.5]decane-8-carboxylic acid (3-fluorophenyl)amide]
- inhibition at 10 µM (NA transporter): 58%

Structure (SMILES): Cc1ccc(CN2CC3(CCN(CC(=O)Nc4ccc(S(=O)(=O)Nc5cc(Cl)cc(Cl)c5)cc4)CC3)OC2=O)cc1 [Example 75, N-[4-(3,5-dichlorophenylsulfamoyl)phenyl]-2-[3-(4-methylbenzyl)-2-oxo-1-oxa-3,8-diazaspiro[4.5]dec-8-yl]acetamide]
- inhibition at 10 µM (NA transporter): 67%

Structure (SMILES): COc1ccc([N+](=O)[O-])cc1CN1CC2(CCN(C(=O)Cc3ccc(OC)c(OC)c3)CC2)OC1=O [Example 150, 8-[2-(3,4-dimethoxyphenyl)acetyl]-3-(2-methoxy-5-nitrobenzyl)-1-oxa-3,8-diazaspiro[4.5]decan-2-one]
- inhibition at 10 µM (5-HT transporter): 84%

Structure (SMILES): N#Cc1ccccc1CN1CC2(CCN(C(=O)c3ccc([N+](=O)[O-])cc3Cl)CC2)OC1=O [Example 151, 2-[8-(2-chloro-4-nitrobenzoyl)-2-oxo-1-oxa-3,8-diazaspiro[4.5]dec-3-ylmethyl]benzonitrile]
- inhibition at 10 µM (5-HT transporter): 71%
